Measurements taken from US8835615B2, “2′-fluorine-4′-substituted-nucleoside analogues, preparation methods and uses thereof” (priority 2007, dated 2014).
Values after ≈ are worked out from the molar mass of the structure shown. Where two headings read alike, the source gives them in different places.

Legend:
HIV-1 IIIB = test: Anti-HIV-1 activity in MT-4 cell culture (P24 antigen); type: cell-based
[1] = Cytotoxicity in MT-4 cells, MTT method; conditions: human
[2] = Solubility of the drugs to be tested; type: physicochemical
Method: During the test, the solution was dissolved by DMSO to suitable concentration, diluted by culture medium, and immediately added into cell culture.

VSVG/HIV-luc = test: Pharmacological model of wild type HIV-1 replication (VSVG/HIV-luc, Cell 293); type: cell-based
Hep G2.2.15 = test: Cytotoxicity on Hep G2.2.15 (MTT); type: cell-based, human; conditions: for Cell Survival Rate: MTT
HBV DNA = HBV DNA in Hep G2.2.15 cell supernatant, fluorescent quantitative PCR; type: cell-based, hepatitis B virus; conditions: for HBV DNA copy number / Inhibition ratio (%): cell supernatant
HCV = test: Anti-HCV activity, HCV-RNA by automatic PCR ELISA; type: cell-based
Method: The HCV replication cells (Avva.5) were cultivated in the Dulbecco's improved Eagle medium containing 10% fetal calf serum and 1 mg/ml G418. 293-Sip-L cells were cultivated in the Dulbecco's improved Eagle medium containing 10% fetal calf serum, 250 μg/ml G418 and 150 μg/ml hygromycin B.
Using Petri culture dish in a diameter of 60 mm, the cells were cultivated in a positive culture medium containing 100 μl of HCV for 12 hours. Then, the cells were cultivated in the fresh medium containing on HCV and the medium was replaced once everyday. When detecting HCV-RNA 7 days after the cells have been infected with HCV, it is necessary to clean the cells using the Dulbecco's improved Eagle medium in trypsinization and centrifugation methods. The upper layer part cleaned for the second time (used for comparison) and the washed cells were collected for RNA extraction and RT-PCR detection. β-actin mRNA was simultaneously determined for the purpose of comparison.
The quantitative determination on HCV-RNA is performed in automatic PCR Enzyme-linked immunosorbent assay (ELISA). (Edition 2.0, Roche Diagnostics, Branchburg, N.J.)
HCV-NA level was determined in automatic PCR ELISA.

[3] = Human immunodeficiency virus 1, MT4, 96 h, HIV-1 IIIB in MT-4 cell culture, 4 days, read-out: IC50
[4] = MT-4 cells infected with HIV-1 IIIB
[5] = Human immunodeficiency virus 1, VSVG/HIV-luc, Cell 293, read-out: Remarks IC50
[6] = Human immunodeficiency virus 1, IIIB, MT4, 96 h
[7] = 0.06 μg/ml in the cell supernatant
[8] = 0.6 μg/ml in the cell supernatant
[9] = 6 μg/ml in the cell supernatant

| SMILES | IC50 (HIV-1 IIIB; [3]) | CC50 at 4 days [1, 4] | CC50 at 4 days ([1]; uninfected MT-4 cells) | Solubility in DMSO [2] | Solubility in water [2] | other results |
| --- | --- | --- | --- | --- | --- | --- |
| Cc1cn([C@H]2C[C@H](N=[N+]=[N-])[C@@H](CO)O2)c(=O)[nH]c1=O [AZT, Zidovudine, reference compound] | 0.182 ng/mL (≈ 0.000681 µM) | > 0.625 µg/mL | > 0.625 µg/mL |  |  |  |
| C#CC1(CO)OC(n2ccc(N)nc2=O)C(F)C1O (stereo not shown) [Compound 1] | 101 ng/mL (≈ 0.375 µM) | 43.6 µg/mL (≈ 162 µM) | 40.9 µg/mL (≈ 152 µM) | DMSO-soluble | water-insoluble | IC50 (VSVG/HIV-luc; [5]): 500 nM |
| CC1(CO)OC(n2ccc(O)nc2=O)C(F)C1O (stereo not shown) [Compound 9] |  | 31.2 µg/mL (≈ 120 µM) | 30.1 µg/mL (≈ 115 µM) | DMSO-soluble | water-insoluble | IC50 (HIV-1 IIIB; [6]): 162 ng/mL (≈ 0.623 µM) |
| [N-]=[N+]=NC1(CO)OC(n2ccc(N)nc2=O)C(F)C1O (stereo not shown) [Compound 15] |  | > 100 µg/mL | > 100 µg/mL | DMSO-soluble | water-insoluble | Cell Survival Rate (Hep G2.2.15; 8 μg/ml): 98.7%; Cell Survival Rate (Hep G2.2.15; 40 μg/ml): 96.7%; Cell Survival Rate (Hep G2.2.15; 200 μg/ml): 85.5%; Cell Survival Rate (Hep G2.2.15; 1000 μg/ml): 82.6%; Toxicity (in words) (Hep G2.2.15; in vitro tests): less toxicity; HBV DNA copy number (HBV DNA; 0.016 μg/L): 18.9 *10^5; Inhibition ratio (%) (HBV DNA; 0.016 μg/L): 41.0%; HBV DNA copy number (HBV DNA; 0.08 μg/L): 13.5 *10^5; Inhibition ratio (%) (HBV DNA; 0.08 μg/L): 57.8%; HBV DNA copy number (HBV DNA; 0.4 μg/L): 10.3 *10^5; Inhibition ratio (%) (HBV DNA; 0.4 μg/L): 67.8%; HBV DNA copy number (HBV DNA; 2 μg/L): 5.21 *10^5; Inhibition ratio (%) (HBV DNA; 2 μg/L): 83.7%; EC50 (HBV DNA; Hepatitis B virus, HepG2.2.15, HBV DNA in Hep G2.2.15 supernatant): 0.00019 µg/mL (≈ 0.000664 µM); Effect on HBV DNA copy number (in words) (HBV DNA; after administration, in vitro): significantly reduce; IC50 (VSVG/HIV-luc; Human immunodeficiency virus 1, read-out: Remarks IC50): 1.5 nM; IC50 (HIV-1 IIIB; [6]): 0.01 ng/mL (≈ 3.49e-05 µM) |
| [N-]=[N+]=NC1(CO)OC(n2ccc(O)nc2=O)C(F)C1O (stereo not shown) [Compound 17] |  |  |  |  |  | HBV DNA copy number (HBV DNA; 100 μg/L): 19.2 *10^5; Inhibition ratio (%) (HBV DNA; 100 μg/L): 40.6%; HBV DNA copy number (HBV DNA; 500 μg/L): 14.3 *10^5; Inhibition ratio (%) (HBV DNA; 500 μg/L): 52.2%; HBV DNA copy number (HBV DNA; 1000 μg/L): 10.2 *10^5; Inhibition ratio (%) (HBV DNA; 1000 μg/L): 67.9%; Inhibition effect Test 1 (HCV-RNA level) (HCV; [7]): 4.9 × 10^2; Inhibition effect Test 2 (HCV-RNA level) (HCV; [7]): 4.1 × 10^2; Inhibition effect Test 1 (HCV-RNA level) (HCV; [8]): 0.92 × 10^2; Inhibition effect Test 2 (HCV-RNA level) (HCV; [8]): 0.78 × 10^2; Inhibition effect Test 1 (HCV-RNA level) (HCV; [9]): 1.1 × 10^2; Inhibition effect Test 2 (HCV-RNA level) (HCV; [9]): 0.81 × 10^2; Inhibition effect on HCV (in words) (HCV; 6 μg/ml, 0.6 μg/ml or 0.06 μg/ml): relatively strong inhibition effect |
| C#CC1(CO)OC(n2cnc3c(F)ncnc32)C(F)C1O (stereo not shown) [Compound 19] |  | 43.8 µg/mL (≈ 148 µM) | 39.8 µg/mL (≈ 134 µM) | DMSO-soluble | water-insoluble | IC50 (VSVG/HIV-luc; [5]): 1000 nM; IC50 (HIV-1 IIIB; [6]): 90 ng/mL (≈ 0.304 µM) |
| CC1(CO)OC(n2cnc3c(O)ncnc32)C(F)C1O (stereo not shown) [Compound 36] | 127 ng/mL (≈ 0.447 µM) | 35.1 µg/mL (≈ 124 µM) | 37.5 µg/mL (≈ 132 µM) | DMSO-soluble | water-insoluble |  |
| N#CC1(CO)OC(n2cnc3c(N)ncnc32)C(F)C1O (stereo not shown) [Compound 39] | 1490 ng/mL (≈ 5.06 µM) | 38.3 µg/mL (≈ 130 µM) | 36.8 µg/mL (≈ 125 µM) | DMSO-soluble | water-insoluble |  |
| N#CC1(CO)OC(n2cc(F)c3c(O)ncnc32)C(F)C1O (stereo not shown) [Compound 46] | 131 ng/mL (≈ 0.42 µM) | 48.5 µg/mL (≈ 155 µM) | 55.4 µg/mL (≈ 177 µM) | DMSO-soluble | water-insoluble |  |
| [N-]=[N+]=NC1(CO)OC(n2cc(F)c3c(N)ncnc32)C(F)C1O (stereo not shown) [Compound 50] | 2300 ng/mL (≈ 7.03 µM) | 28.3 µg/mL (≈ 86.5 µM) | 27.9 µg/mL (≈ 85.3 µM) | DMSO-soluble | water-insoluble |  |
| C#CC1(CO)OC(n2cc(F)c3c(N)ncnc32)C(F)C1O (stereo not shown) [Compound 52] | 133 ng/mL (≈ 0.429 µM) | 41.3 µg/mL (≈ 133 µM) | 38.6 µg/mL (≈ 124 µM) | DMSO-soluble | water-insoluble |  |
| Cc1ccnc2c1NC(=O)c1cccnc1N2C1CC1 [NVP, Nevirapine, reference compound] | 3.64 ng/mL (≈ 0.0137 µM) | > 12.5 µg/mL | > 12.5 µg/mL |  |  |  |
